{"source": "patent US20020148006A1", "about": "“Transgenic plants with modified sterol compositions” (Asgrow Seed Company, L.L.C., priority 1996, published 2002)", "key": {"[1]": {"system": "(S)-adenosyl-L-methionine: Δ^24-sterol methyl transferase (SMT)", "assay": "Effect of substrate and transition state analog inhibitors on soluble SMT enzyme from 4-day seedlings", "type": "biochemical, Zea mays (corn)", "settings": "for Ki: soluble SMT, 4-day seedlings, NA = no inhibition; for Effect on the second methyl transfer / Type of inhibition / kinetic pattern / Effect on the first methyl transfer: soluble corn SMT"}, "yeast SMT enzyme": {"target": "T1, yeast SMT enzyme (Saccharomyces cerevisiae, UniProt P25087)", "T1 construct": "made in house; host or cells: E. coli, pET23a(+)", "T1 sequence (P25087 1-383)": "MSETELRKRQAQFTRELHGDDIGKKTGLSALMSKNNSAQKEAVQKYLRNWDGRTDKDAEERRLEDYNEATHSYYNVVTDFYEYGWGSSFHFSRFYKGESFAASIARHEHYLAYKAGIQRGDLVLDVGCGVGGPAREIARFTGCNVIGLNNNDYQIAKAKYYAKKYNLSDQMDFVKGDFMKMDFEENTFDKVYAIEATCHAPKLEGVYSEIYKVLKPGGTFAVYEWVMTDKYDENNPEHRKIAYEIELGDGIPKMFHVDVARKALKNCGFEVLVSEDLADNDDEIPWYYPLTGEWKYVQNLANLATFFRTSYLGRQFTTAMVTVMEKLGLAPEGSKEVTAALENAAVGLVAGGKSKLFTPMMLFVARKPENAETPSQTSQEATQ", "assay": "Substrate preference / binding of yeast SMT (ERG6 product)", "type": "biochemical", "from_the_text": "The cloned ERG6 gene was expressed in E. coli (Venkatramesh et al., 1996)."}, "Heliothis zea": {"system": "Heliothis zea", "assay": "Sterol utilization and metabolism by Heliothis zea reared on artificial diet with sterol supplement", "settings": "for Sterol composition (as % total sterol): ts: insect tissues, RP-HPLC and GC-MS; for Utilization by H. zea / support of larval growth and development (words): test sterol as sole added dietary sterol", "experimental": "Heliothis zea (corn earworm) was reared on an artificial diet treated with different sterol supplements to study the relation between sterol structure and utilization in insects. H. zea eggs were used to establish a disease-free stock colony.\nThe stock insects were reared using sterile procedures on a pinto bean-based diet. Moths were fed 10% sucrose. Cultures were maintained at 27±1° C., at 40±10% relative humidity on a 14:10 light-dark photoperiod and an artificial diet was used to rear the insects on different sterol supplements. The experimental diet contained agar, which is known to contain trace contamination of cholesterol, otherwise the experimental diet was sterol-free.\nSterols were solubilized in acetone. Aliquots of the solutions were added to the sterol-free diet in a mortar, the material mixed thoroughly with the diet, and the organic solvent allowed to evaporate. Sterols were supplied to the medium at 200 ppm (equivalent to 1 mg of sterol per experimental vessel containing one insect).\nBy day 20, H. zea larva are in the final stage of larval development (sixth instar), after which the insects may pupate. A single neonate larva was placed in an experimental culture vial and allowed to grow for 20 days. The fresh weight, length and instar stage of 20-day larva were recorded.\nIn some treatments, the larvae were allowed to grow for another 4 days to determine whether they could pupate properly and develop into moth forms.\nThese fatty alcohols may comigrate with sterols during some forms of chromatography and interfere with sterol quantitation, particularly of cholesterol. Therefore, in order to confirm the identity and amount of cholesterol in the insect an aliquot of the NSF was injected into a HPLC column and the fraction corresponding to cholesterol was examined by GC-MS."}, "[2]": {"system": "yeast sterol auxotroph, GL-7", "assay": "Growth support of yeast sterol auxotroph GL-7 cultured with test sterols", "type": "cell-based", "settings": "sterol added to culture medium", "experimental": "The phytosterols identified in Example 1 were tested individually for their ability to support growth. In the absence of a plant sterol mutant for such studies the yeast sterol auxotroph, GL-7, was cultured in the presence of sterols identified according to Example 1, above (Li, 1996). This yeast mutant is used as a model system because it can take up sterols from the culture medium and incorporate the test sterol into the membrane lipid bilayer and proliferate. The amount of proliferation of the cells was measured in the presence and absence of hormonal levels of ergosterol, the major yeast sterol."}, "[3]": {"system": "3-hydroxy-3-methylglutaryl-coenzyme A reductase (HMGR)", "assay": "Microsomal HMGR activity during seedling development", "type": "biochemical, corn", "parameters": "dose or concentration left out as unconfirmed"}, "[4]": {"system": "(S)-adenosyl-L-methionine: Δ^24-sterol methyl transferase (SMT)", "assay": "Sterol specificity (substrate methylation) of SMT enzyme from 4-day corn seedlings", "type": "biochemical, Zea mays (corn)", "settings": "for % Activity, relative to cycloartenol methylation: soluble SMT", "experimental": "The sterol specificity of the microsome-bound and soluble SMT enzyme from 4-day corn seedlings was determined in order to elucidate the enzymatic basis for the plant sterols identified in Example 1."}, "[5]": {"settings": "read-out: Ki relative to the first methyl transfer"}, "[6]": {"settings": "Table 11, sterol 200 ppm in diet"}, "[7]": {"settings": "Table 11, sterol 200 ppm in diet, 20-day larvae, relative to growth on cholesterol normalized to 100%"}, "[8]": {"settings": "read-out: Ki relative to the second methyl transfer"}}, "note": "Read-outs that look alike come from different tables or passages of the source."}
{"molecule": "26,27-Cyclopropylidene cycloartenol", "values": [{"measurement": "Ki", "setting": "[1]; [5]", "result": 25, "unit": "µM"}, {"measurement": "Effect on the second methyl transfer", "setting": "[1]", "result": "not affecting the second methyl transfer"}, {"measurement": "Type of inhibition / kinetic pattern", "setting": "[1]", "result": "potent competitive inhibitor"}, {"measurement": "Substrate preference / binding to yeast SMT (words)", "setting": "yeast SMT enzyme", "result": "failed to bind to the yeast SMT enzyme"}]}
{"molecule": "CCC(CCC(C)C1CCC2C3CC=C4CC(O)CCC4(C)C3CCC12C)C(C)C", "note": "(stereo not shown) [Sitosterol, sitosterol]", "values": [{"measurement": "Sterol composition (as % total sterol): ts", "setting": "Heliothis zea; Table 11", "result": 20, "unit": "%"}, {"measurement": "Instar reached by day 20", "setting": "Heliothis zea; [6]", "result": 6}, {"measurement": "Growth response", "setting": "Heliothis zea; [7]", "result": 100, "unit": "%"}, {"measurement": "Utilization by H. zea / support of larval growth and development (words)", "setting": "Heliothis zea", "result": "supported larval growth to late-sixth instar"}, {"measurement": "Ki, second methyl transfer", "setting": "[1]", "result": 100, "unit": "µM"}, {"measurement": "Ki", "setting": "[1]; [8]", "result": 100, "unit": "µM"}, {"measurement": "Effect on the first methyl transfer", "setting": "[1]", "result": "without affecting the first methyl transfer"}, {"measurement": "Effect on growth of GL-7", "setting": "[2]", "result": "without affecting the rate of growth of the cells"}, {"measurement": "Effect on HMGR activity", "setting": "[3]", "result": "neither sitosterol nor 24(28)-methylene cycloartanol at 100 mM affected HMGR activity"}]}
{"molecule": "CC(C)=CCC[C@@H](C)[C@H]1CC[C@H]2C3=C(CC[C@]12C)[C@@]1(C)CC[C@H](O)C[C@@H]1CC3", "note": "[Zymosterol]", "values": [{"measurement": "Enzyme Activity", "setting": "[4]; soluble SMT from corn seedlings, substrates marked (C1), first methyl transfer, BG = background", "result": "5,252 dpm/min"}, {"measurement": "% Activity, relative to cycloartenol methylation", "setting": "[4]; (C1), first methyl transfer", "result": "14 (C1) %"}, {"measurement": "Substrate quality for corn SMT", "setting": "[4]; soluble enzyme", "result": "poor sterol substrate of the first methylation reaction"}, {"measurement": "Substrate preference / binding to yeast SMT (words)", "setting": "yeast SMT enzyme", "result": "preferred sterol substrate of yeast SMT enzyme"}, {"measurement": "Substrate preference / binding to yeast SMT (words)", "setting": "yeast SMT enzyme; listed as zymosterol", "result": "preferred substrate of the yeast SMT"}]}
{"molecule": "CC(CCC1NC1(C)C)[C@H]1CC[C@@]2(C)C3=C(CC[C@]12C)[C@]1(C)CC[C@H](O)C(C)(C)[C@@H]1CC3", "note": "(stereo partly drawn) [24-(R,S)-25-Epiminolanosterol, 24-(R,S)-25-epiminolanosterol]", "values": [{"measurement": "Type of inhibition / kinetic pattern", "setting": "[1]", "result": "non-competitive type kinetic pattern"}]}
{"molecule": "CC(C)C(C)CCC(C)C1CCC2C3CC=C4CC(O)CCC4(C)C3CCC12C", "note": "(stereo not shown) [Campesterol, campesterol]", "values": [{"measurement": "Effect on the first methyl transfer", "setting": "[1]", "result": "failed to inhibit either the first or second methylation reaction"}, {"measurement": "Effect on the second methyl transfer", "setting": "[1]", "result": "failed to inhibit either the first or second methylation reaction"}]}
{"molecule": "CC(C)CCC[C@@H](C)[C@H]1CC[C@H]2[C@@H]3CC=C4C[C@@H](O)CC[C@]4(C)[C@H]3CC[C@]12C", "note": "[Cholesterol]", "values": [{"measurement": "Dietary concentration that enhanced the rate of development of larvae", "setting": "Heliothis zea; % of diet", "result": "≥ 0.015", "unit": "%"}, {"measurement": "Minimal dietary concentration necessary for larvae to grow and pupate", "setting": "Heliothis zea; % of the experimental diet", "result": 0.01, "unit": "%"}, {"measurement": "Instar reached by day 20", "setting": "Heliothis zea; [6]", "result": 6}, {"measurement": "Growth response", "setting": "Heliothis zea; [7]", "result": 100, "unit": "%"}, {"measurement": "Growth response", "setting": "Heliothis zea; Table 12, cholesterol / 24,25-dihydrolanosterol mixtures in diet", "result": 100}, {"measurement": "Instar reached by day 20", "setting": "Heliothis zea; Table 12, sterol mixtures", "result": 6}, {"measurement": "Sterol composition (as % total sterol): cholesterol", "setting": "Heliothis zea; Table 12, sterol recovered from insect", "result": "(100%)"}, {"measurement": "Utilization by H. zea / support of larval growth and development (words)", "setting": "Heliothis zea", "result": "supported larval growth to late-sixth instar"}, {"measurement": "Effect on growth of GL-7", "setting": "[2]", "result": "without affecting the rate of growth of the cells"}]}
{"molecule": "C=C(CCC(C)C1CCC2(C)C3CCC4C(C)(C)C(O)CCC45CC35CCC12C)C(C)C", "note": "(stereo not shown) [24(28)-Methylene cycloartanol]", "values": [{"measurement": "Ki", "setting": "[1]; [5]", "result": 20, "unit": "µM"}, {"measurement": "Effect on the second methyl transfer", "setting": "[1]", "result": "failed to inhibit the second methyl transfer"}, {"measurement": "% Activity, relative to cycloartenol methylation", "setting": "[4]; (C2), second methyl transfer", "result": "0 (C2) %"}, {"measurement": "Effect on HMGR activity", "setting": "[3]", "result": "neither sitosterol nor 24(28)-methylene cycloartanol at 100 mM affected HMGR activity"}]}
{"molecule": "CC=C(CCC(C)C1CCC2C3=CCC4C(C)C(O)CCC4(C)C3CCC21C)C(C)C", "note": "(stereo not shown) [Z-24(28)-Ethylidene lophenol]", "values": [{"measurement": "Ki", "setting": "[1]; [8]", "result": 75, "unit": "µM"}, {"measurement": "Effect on the first methyl transfer", "setting": "[1]", "result": "not affecting the first methyl transfer"}]}
{"molecule": "CC(C)[C@@H](C)/C=C/[C@@H](C)[C@H]1CC[C@H]2C3=CC=C4C[C@@H](O)CC[C@]4(C)[C@H]3CC[C@]12C", "note": "[Ergosterol]", "values": [{"measurement": "Sterol composition (as % total sterol): ts", "setting": "Heliothis zea; Table 11", "result": 36, "unit": "%"}, {"measurement": "Instar reached by day 20", "setting": "Heliothis zea; [6]", "result": 3}, {"measurement": "Growth response", "setting": "Heliothis zea; [7]", "result": 30, "unit": "%"}, {"measurement": "Effect on growth of GL-7", "setting": "[2]", "result": "sparking growth"}]}
